Reference: patent US8633186B2, “Modulation of chemosensory receptors and ligands associated therewith” (Senomyx Inc., priority 2007, dated 2014)

Legend:
[1] = test system: human panelists (perceived sweetness intensity); assay: Sweet flavor and sweet flavor enhancement, human panelists, scaling test; assay type: in vivo; parameters: key: 0-15 line scale; 0 = no sweetness, 15 = 15% sucrose sweetness
Description: Test samples containing experimental compounds were compared to a dose-response curve for perceived sweetness intensity of sweeteners (such as, for example, sucralose, sucrose, fructose and other sweeteners) concentrations to determine equivalent sweetness intensity.
A group of eight or more panelists tasted solutions including sweeteners at various concentrations, as well as the experimental compound both with and without added sweetener. Panelists then rated sweetness intensity of all samples on a structured horizontal line scale, anchored from 0 to 15, where 0 equals no sweetness and 15 equals equivalent sweetness to a 15% sucrose sample. Scores for sweetness intensity were averaged across panelists. Then using the average scores and/or equation of the line for the sweetener dose-response curve, equivalent sweetness concentrations were determined for the samples containing experimental compounds.
Subjects had been previously familiarized with the key attribute taste and were trained to use the 0 to 15 point line scale. Subjects refrained from eating or drinking (except water) for at least 1 hour prior to the test. Subjects ate a cracker and rinsed with water several times to clean the mouth.
Sweetener solutions are provided at a wide range of concentrations such as 100 ppm, 200 ppm, 300 ppm, 400 ppm, and 500 ppm for sucralose, or between 0% and 12% for sucrose or fructose, in order to create a dose-response curve. Samples containing experimental compound were prepared both alone and in a 100 ppm sucralose solution or a 6% sucrose or fructose solution. All samples were made up in low sodium buffer pH 7.1. In order to aid dispersion, solutions can be made up in 0.1% ethanol.
The solutions were dispensed in 20 ml volumes into 1 oz. sample cups and served to the subjects at room temperature. All samples were presented in randomized counterbalanced order to reduce response bias. Further, two sessions of testing may be used to check panel precision.
Subjects tasted each sample individually and rate sweetness intensity on the line scale prior to tasting the next sample. All samples were expectorated. Subjects may retaste the samples but can only use the volume of sample given. Subjects must rinse with water between samples. Eating an unsalted cracker between samples may be required depending on the samples tasted.
The scores for each sample were averaged across subjects and standard error was calculated. The dose-response curve was plotted graphically, and this may be used to ensure the panel is rating accurately; i.e., increasing the concentration of sucralose should correspond to increased average scores for sweetness. A 2-way ANOVA (factors being samples and panelists) and multiple comparison tests (such as Tukey's Honestly Significant Difference test) can be used to determine differences among samples and/or panelists. A 3-way ANOVA, with sessions as the third factor, can be used to determine if there is any difference in the ratings between sessions.

SMILES: NC1=NS(=O)(=O)Nc2cccc(OC3CCCCC3)c21 [Example 168, 4-Amino-5-(cyclohexyloxy)-1H-benzo[c][1,2,6]thiadiazine-2,2-dioxide]
- melting point: 215 to 216 °C

SMILES: CC(C)=Cc1cccc2c1C(N)=NS(=O)(=O)N2 [Example 129, 4-Amino-5-(2-methylprop-1-enyl)-1H-benzo[c][1,2,3]thiadiazine-2,2-dioxide]
- melting point: > 260 °C

SMILES: Nc1c(C(=O)O)c(=O)[nH]c2ccccc12 [Example 66, 4-Amino-2-oxo-1,2-dihydroquinoline-3-carboxylic acid]
- melting point: > 250 °C

SMILES: Cc1sc2[nH]c(=O)nc(N)c2c1C.Cl
- melting point: > 260 °C

SMILES: C/C=C/c1cccc2c1C(N)=NS(=O)(=O)N2 [Example 130, 4-Amino-5-((E)-prop-1-enyl)-1H-benzo[c][1,2,3]thiadiazine-2,2-dioxide]
- melting point: > 260 °C

SMILES: NC1=NS(=O)(=O)Nc2cccc(OCC3CC3)c21 [Example 186, (S)-4-Amino-5-(cyclopropylmethoxy)-1H-benzo[c][1,2,6]thiadiazine-2,2-dioxide]
- melting point: 246 to 247 °C

SMILES: OC[C@H]1O[C@H](O[C@]2(CCl)O[C@H](CCl)[C@@H](O)[C@@H]2O)[C@H](O)[C@@H](O)[C@H]1Cl [Sucralose, sucralose]
- Average sweetness score (line scale 0 to 15) ([1]; Table 1, 100 ppm sucralose alone): 6.3
- Average sweetness score (line scale 0 to 15) ([1]; Table 1, 200 ppm sucralose alone): 10.4
- Average sweetness score (line scale 0 to 15) ([1]; Table 1, 300 ppm sucralose alone): 11.5
- Average sweetness score (line scale 0 to 15) ([1]; Table 1, 400 ppm sucralose alone): 12.3
- Average sweetness score (line scale 0 to 15) ([1]; Table 3, 100 ppm sucralose alone): 7.4
- Average sweetness score (line scale 0 to 15) ([1]; Table 3, 200 ppm sucralose alone): 10.4
- Average sweetness score (line scale 0 to 15) ([1]; Table 3, 300 ppm sucralose alone): 10.5
- Average sweetness score (line scale 0 to 15) ([1]; Table 3, 400 ppm sucralose alone): 11.2
- Average sweetness score (line scale 0 to 15) ([1]; Table 3, 600 ppm sucralose alone): 13.0
- Average sweetness score (line scale 0 to 15) ([1]; Table 4, 100 ppm sucralose alone): 6.3
- Average sweetness score (line scale 0 to 15) ([1]; Table 4, 200 ppm sucralose alone): 9.5
- Average sweetness score (line scale 0 to 15) ([1]; Table 4, 300 ppm sucralose alone): 10.3
- Average sweetness score (line scale 0 to 15) ([1]; Table 4, 400 ppm sucralose alone): 12.1
- Average sweetness score (line scale 0 to 15) ([1]; Table 6, 100 ppm sucralose alone): 6.5
- Average sweetness score (line scale 0 to 15) ([1]; Table 6, 200 ppm sucralose alone): 9.1
- Average sweetness score (line scale 0 to 15) ([1]; Table 6, 300 ppm sucralose alone): 10.8
- Average sweetness score (line scale 0 to 15) ([1]; Table 6, 400 ppm sucralose alone): 11.2
- Average sweetness score (line scale 0 to 15) ([1]; Table 17, 100 ppm sucralose alone): 6.5
- Average sweetness score (line scale 0 to 15) ([1]; Table 17, 200 ppm sucralose alone): 9.0
- Average sweetness score (line scale 0 to 15) ([1]; Table 17, 300 ppm sucralose alone): 10.9
- Average sweetness score (line scale 0 to 15) ([1]; Table 17, 400 ppm sucralose alone): 12.3
- Average Sweetness ([1]; Table 28, 50 ppm sucralose alone, n = 28): 4.3
- Average Sweetness ([1]; Table 28, 100 ppm sucralose alone, n = 28): 6.2
- Average Sweetness ([1]; Table 28, 150 ppm sucralose alone, n = 28): 8.2
- Average Sweetness ([1]; Table 28, 200 ppm sucralose alone, n = 28): 8.9
- Average Sweetness ([1]; Table 28, 300 ppm sucralose alone, n = 28): 10.3

SMILES: OC[C@H]1O[C@@](CO)(O[C@H]2O[C@H](CO)[C@@H](O)[C@H](O)[C@H]2O)[C@@H](O)[C@@H]1O [Sucrose, sucrose]
- Average sweetness score (line scale 0 to 15) ([1]; Table 5, 2% sucrose alone): 2.4
- Average sweetness score (line scale 0 to 15) ([1]; Table 7, 2% sucrose alone): 1.8
- Average sweetness score (line scale 0 to 15) ([1]; Table 8, 6% sucrose alone): 6.6
- Average sweetness score (line scale 0 to 15) ([1]; Table 8, 8% sucrose alone): 8.1
- Average sweetness score (line scale 0 to 15) ([1]; Table 8, 9% sucrose alone): 8.6
- Average sweetness score (line scale 0 to 15) ([1]; Table 8, 10% sucrose alone): 9.6
- Average sweetness score (line scale 0 to 15) ([1]; Table 9, 2% sucrose alone): 2.2
- Average sweetness score (line scale 0 to 15) ([1]; Table 9, 4% sucrose alone): 4.0
- Average sweetness score (line scale 0 to 15) ([1]; Table 9, 6% sucrose alone): 5.5
- Average sweetness score (line scale 0 to 15) ([1]; Table 10, 6% sucrose alone): 7.3
- Average sweetness score (line scale 0 to 15) ([1]; Table 10, 8% sucrose alone): 7.9
- Average sweetness score (line scale 0 to 15) ([1]; Table 10, 9% sucrose alone): 8.6
- Average sweetness score (line scale 0 to 15) ([1]; Table 10, 10% sucrose alone): 9.6
- Average sweetness score (line scale 0 to 15) ([1]; Table 11, 2% sucrose alone): 2.1
- Average sweetness score (line scale 0 to 15) ([1]; Table 11, 4% sucrose alone): 3.9
- Average sweetness score (line scale 0 to 15) ([1]; Table 11, 6% sucrose alone): 5.7
- Average sweetness score (line scale 0 to 15) ([1]; Table 12, 6% sucrose alone): 6.8
- Average sweetness score (line scale 0 to 15) ([1]; Table 12, 8% sucrose alone): 8.3
- Average sweetness score (line scale 0 to 15) ([1]; Table 12, 9% sucrose alone): 8.6
- Average sweetness score (line scale 0 to 15) ([1]; Table 12, 10% sucrose alone): 9.5
- Average sweetness score (line scale 0 to 15) ([1]; Table 13, 2% sucrose alone): 1.9
- Average sweetness score (line scale 0 to 15) ([1]; Table 13, 4% sucrose alone): 3.9
- Average sweetness score (line scale 0 to 15) ([1]; Table 13, 6% sucrose alone): 5.5
- Average sweetness score (line scale 0 to 15) ([1]; Table 14, 6% sucrose alone): 6.5
- Average sweetness score (line scale 0 to 15) ([1]; Table 14, 8% sucrose alone): 8.5
- Average sweetness score (line scale 0 to 15) ([1]; Table 14, 9% sucrose alone): 8.7
- Average sweetness score (line scale 0 to 15) ([1]; Table 14, 10% sucrose alone): 9.7
- Average sweetness score (line scale 0 to 15) ([1]; Table 15, 6% sucrose alone): 7.0
- Average sweetness score (line scale 0 to 15) ([1]; Table 15, 8% sucrose alone): 8.4
- Average sweetness score (line scale 0 to 15) ([1]; Table 15, 9% sucrose alone): 9.0
- Average sweetness score (line scale 0 to 15) ([1]; Table 15, 10% sucrose alone): 9.1
- Average sweetness score (line scale 0 to 15) ([1]; Table 16, 2% sucrose alone): 2.0
- Average sweetness score (line scale 0 to 15) ([1]; Table 16, 4% sucrose alone): 4.1
- Average sweetness score (line scale 0 to 15) ([1]; Table 16, 6% sucrose alone): 5.7
- Average sweetness score (line scale 0 to 15) ([1]; Table 18, 2% sucrose alone): 2.4
- Average sweetness score (line scale 0 to 15) ([1]; Table 18, 4% sucrose alone): 4.2
- Average sweetness score (line scale 0 to 15) ([1]; Table 18, 6% sucrose alone): 5.9
- Average sweetness score (line scale 0 to 15) ([1]; Table 19, 6% sucrose alone): 7.3
- Average sweetness score (line scale 0 to 15) ([1]; Table 19, 8% sucrose alone): 8.6
- Average sweetness score (line scale 0 to 15) ([1]; Table 19, 9% sucrose alone): 9.1
- Average sweetness score (line scale 0 to 15) ([1]; Table 19, 10% sucrose alone): 9.7
- Average sweetness score (line scale 0 to 15) ([1]; Table 20, 2% sucrose alone): 8.6
- Average sweetness score (line scale 0 to 15) ([1]; Table 20, 4% sucrose alone): 9.1
- Average sweetness score (line scale 0 to 15) ([1]; Table 20, 6% sucrose alone): 9.7
- Average sweetness score (line scale 0 to 15) ([1]; Table 21, 6% sucrose alone): 6.5
- Average sweetness score (line scale 0 to 15) ([1]; Table 21, 8% sucrose alone): 8.3
- Average sweetness score (line scale 0 to 15) ([1]; Table 21, 9% sucrose alone): 9.4
- Average sweetness score (line scale 0 to 15) ([1]; Table 21, 10% sucrose alone): 9.4
- Average sweetness score (line scale 0 to 15) ([1]; Table 22, 6% sucrose alone): 6.5
- Average sweetness score (line scale 0 to 15) ([1]; Table 22, 8% sucrose alone): 8.2
- Average sweetness score (line scale 0 to 15) ([1]; Table 22, 9% sucrose alone): 9.2
- Average sweetness score (line scale 0 to 15) ([1]; Table 22, 10% sucrose alone): 9.4
- Average sweetness score (line scale 0 to 15) ([1]; Table 23, 6% sucrose alone): 6.8
- Average sweetness score (line scale 0 to 15) ([1]; Table 23, 8% sucrose alone): 8.7
- Average sweetness score (line scale 0 to 15) ([1]; Table 23, 9% sucrose alone): 9.5
- Average sweetness score (line scale 0 to 15) ([1]; Table 23, 10% sucrose alone): 9.5
- Average sweetness score (line scale 0 to 15) ([1]; Table 24, 6% sucrose alone): 6.5
- Average sweetness score (line scale 0 to 15) ([1]; Table 24, 8% sucrose alone): 8.4
- Average sweetness score (line scale 0 to 15) ([1]; Table 24, 9% sucrose alone): 9.2
- Average sweetness score (line scale 0 to 15) ([1]; Table 24, 10% sucrose alone): 9.4
- Average sweetness score (line scale 0 to 15) ([1]; Table 25, 6% sucrose alone): 6.7
- Average sweetness score (line scale 0 to 15) ([1]; Table 25, 8% sucrose alone): 8.1
- Average sweetness score (line scale 0 to 15) ([1]; Table 25, 9% sucrose alone): 9.3
- Average sweetness score (line scale 0 to 15) ([1]; Table 25, 10% sucrose alone): 9.2
- Average Sweetness ([1]; Table 26, 6% Sucrose alone, n = 24): 6.2
- Average Sweetness ([1]; Table 26, 8% Sucrose alone, n = 24): 8.3
- Average Sweetness ([1]; Table 26, 9% Sucrose alone, n = 24): 9.3
- Average Sweetness ([1]; Table 26, 10% Sucrose alone, n = 24): 9.8
- Average Sweetness ([1]; Table 26, 12% Sucrose alone, n = 24): 11.1
- Average Sweetness ([1]; Table 27, 6% Sucrose alone, n = 30): 6.7
- Average Sweetness ([1]; Table 27, 8% Sucrose alone, n = 30): 8.3
- Average Sweetness ([1]; Table 27, 10% Sucrose alone, n = 30): 10.3
- Average Sweetness ([1]; Table 27, 12% Sucrose alone, n = 30): 11.2
- Average Sweetness ([1]; Table 30, 2% Sucrose alone, n = 30): 2.3
- Average Sweetness ([1]; Table 30, 4% Sucrose alone, n = 30): 4.2
- Average Sweetness ([1]; Table 30, 6% Sucrose alone, n = 30): 5.8
- Average Sweetness ([1]; Table 31, 6% Sucrose alone, n = 28): 6.8
- Average Sweetness ([1]; Table 31, 8% Sucrose alone, n = 28): 8.5
- Average Sweetness ([1]; Table 31, 9% Sucrose alone, n = 28): 8.6
- Average Sweetness ([1]; Table 31, 10% Sucrose alone, n = 28): 9.6
- Average Sweetness ([1]; Table 32, 2% Sucrose alone, n = 28): 2.3
- Average Sweetness ([1]; Table 32, 4% Sucrose alone, n = 28): 4.5
- Average Sweetness ([1]; Table 32, 6% Sucrose alone, n = 28): 5.8

SMILES: CCc1sc2[nH]c(=O)nc(N)c2c1C [Example 7, 4-Amino-6-ethyl-5-methylthieno[2,3-d]pyrimidin-2(1H)-one]
- Average sweetness score (line scale 0 to 15) ([1]; Table 2, 100 μM compound alone in low sodium buffer): 0.1
